Data taken from paper PMC7949122 (The Journal of Biological Chemistry, 2021).
“Also recorded” adds a separate entry of the source. No end group written: not given here.

Assays:
[1] = system: endogenous B1R in HeLa cells (ERK1/2 phosphorylation); experiment: ERK1/2 phosphorylation (western blot) after B1R stimulation, AltB2RFlag versus Mock stable HeLa cells; type: cell-based, human; conditions: 1 μM NG29, n = 3
[2] = molecular target: T1, mutant human B2R(Ø) lacking AltB2R expression (Homo sapiens, UniProt P30411); experiment: Competitive displacement of [3H]-BK binding, living B2R(Ø)-transfected HEK293A cells; conditions: n = 3
T1 construct: expressed in transfected cells; host or cells: HEK293A
T1 sequence (P30411 1-391): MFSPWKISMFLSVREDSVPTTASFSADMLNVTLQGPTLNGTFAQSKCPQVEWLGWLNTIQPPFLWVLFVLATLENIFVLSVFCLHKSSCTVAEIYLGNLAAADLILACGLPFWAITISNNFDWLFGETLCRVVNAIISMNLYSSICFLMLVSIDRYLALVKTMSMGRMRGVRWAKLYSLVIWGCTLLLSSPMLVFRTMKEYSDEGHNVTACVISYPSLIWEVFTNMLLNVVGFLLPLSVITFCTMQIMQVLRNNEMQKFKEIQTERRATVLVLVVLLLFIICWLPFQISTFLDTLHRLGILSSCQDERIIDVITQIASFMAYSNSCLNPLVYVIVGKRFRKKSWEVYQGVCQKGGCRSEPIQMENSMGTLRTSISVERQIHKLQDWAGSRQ
Experimental: Black and gray, negative controls with secondary antibodies only; blue, ^FlagB2R transfected cells; red, ^FlagB2R^(Ø) transfected cells. […] Reported Kd are expressed in nM. Bmax is expressed in fmol/10^6 cells.
Radioligand competition binding assay was performed using adherent living HEK293A cells transiently transfected with B2R or B2R^(Ø), as we previously described ([54]). […] Saturation binding assays were performed using adherent living HEK293A cells transiently transfected with B2R or B2R^(Ø). […] After the incubation time, cells were washed twice with ice-cold PBS, lysed with 200 μl of 0.1 N sodium hydroxide, and transferred into scintillation vials containing 4 ml scintillation liquid. The radioactivity was measured with a β-counter and data were analyzed using GraphPad 6.01 (GraphPad Software, Inc).

[3] = system: B1R; design: method as in PMID 15734727; conditions: cited from earlier work

| Compound | binding affinity, B2R versus B2R(Ø) [2] | also measured |
| --- | --- | --- |
| SarLys[Dphe^8]desArg^9-BK [NG29] |  | phosphorylated ERK1/2 after B1R stimulation, AltB2RFlag versus mock HeLa cells [1]: not significant; also recorded: did not observe any difference in the increased levels of phosphorylated ERK1/2 between mock and AltB2R^Flag cells |
| CC(=O)Nc1ccc(/C=C/C(=O)NCC(=O)N(C)c2ccc(Cl)c(COc3cccc4ccc(C)nc34)c2Cl)cn1 [FR173657] | same affinities |  |
| RPPGFSPFR [BK, H-Arg^1-Pro^2-Pro^3-Gly^4-Phe^5-Ser^6-Pro^7-Phe^8-Arg^9-OH] | same affinities |  |
| desArg^9-BK: carboxy-terminally truncated peptide metabolite (RPPGFSPF; Bradykinin; UniProt P01042 381-388, looked up, fragment) |  | kinin receptor selectivity [3]: selectively bind to the other type of kinin receptor, the inducible B1R |
